The assay concerns the target T1, human CRTH2 receptor (Homo sapiens, UniProt Q9Y5Y4).
T1 construct: host or cells: CHO-K1 (CHO-K1-hCRTH2 cells), membranes prepared in house
T1 sequence (Q9Y5Y4 1-395): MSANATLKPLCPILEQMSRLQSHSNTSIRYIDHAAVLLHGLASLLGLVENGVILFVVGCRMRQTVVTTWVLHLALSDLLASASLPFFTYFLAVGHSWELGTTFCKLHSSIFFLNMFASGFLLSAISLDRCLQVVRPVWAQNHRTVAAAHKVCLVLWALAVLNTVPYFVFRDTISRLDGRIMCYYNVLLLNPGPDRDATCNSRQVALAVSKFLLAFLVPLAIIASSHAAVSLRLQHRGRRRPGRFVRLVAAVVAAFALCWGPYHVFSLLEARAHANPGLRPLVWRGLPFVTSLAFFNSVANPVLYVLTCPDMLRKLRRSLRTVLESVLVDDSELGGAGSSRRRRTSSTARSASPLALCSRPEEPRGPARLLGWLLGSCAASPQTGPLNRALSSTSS
Put plainly: CRTH2 receptor radioligand binding assay (SPA, [3H]-PGD2). The note with it: displacement of [3H]-PGD2 (1 nM) from CHO-K1-hCRTH2 cell membranes, SPA format, 3 h room temperature. On the procedure:
The binding of CRTH2 antagonists is determined using membranes prepared from Chinese hamster ovary cells (CHO-K1 cells) transfected with the human CRTH2 receptor (CHO-K1-hCRTH2 cells, Perkin Elmer, Cat No ES-561-C). To produce cell membranes the CHO-K1-hCRTH2 cells are cultured in suspension in CHO SFMII medium supplemented with 400 μg/ml G418. The cells are harvested by centrifugation at 300 g for 10 min at room temperature. The cell pellet is resuspended in Phosphate Buffer Saline (PBS) including a protease inhibitor mix (Complete, Roche) and adjusted to a concentration of 10E7 cells/ml. The CHO-K1-hCRTH2 cells are disrupted by nitrogen […] to obtain the membrane preparation. Cell debris is removed by centrifugation (500 g at 4° C., 30 min) and the supernatant is transferred into fresh tubes followed by a second centrifugation at 40000 g for 1 h at 4° C. to sediment the membranes. The membranes are suspended in SPA incubation buffer (50 mM Tris HCl, 10 mM MgCl2, 150 mM NaCl, 1 mM EDTA, pH 7.4) without bovine serum albumin, homogenized by passing through a single use needle (Terumo, 23G×1″), and stored in aliquots at −80° C.
The CRTH2 receptor binding assay is performed in a scintillation proximity assay (SPA) format with the radioligand [^3H]-PGD2 (Perkin Elmer, NET616000MC). CHO-K1-hCRTH2 cell membranes are again homogenized by passing through a single use needle (Terumo, 23G×1″) and diluted in SPA incubation buffer in suitable concentrations (0.5-10 μg protein/well). The SPA assay is set up in 96 well microtiter plates (Perkin Elmer, CatNo. 6005040) in SPA incubation buffer with a final volume of 200 μl per well and final concentration of 50 mM Tris-HCl, 10 mM MgCl2, 150 mM NaCl, 1 mM EDTA pH 7.4, 0.1% bovine serum albumin). The SPA assay mixture contains 60 μl of the membrane suspension, 80 μl of Wheat Germ Agglutinin coated PVT beads (GE Healthcare, RPNQ-0001, 0.3 mg/well), 40 μl of [3H]-PGD2 diluted in SPA buffer to a final concentration of 1 nM (50 000 dpm) and 20 μl of the test compound (dissolved in dimethylsulfoxid). The SPA assay mixture is incubated for 3 h at room temperature. Bound radioactivity is determined with a scintillation counter (Micro Beta Trilux, Wallac).
The binding of [^3H]-PGD2 to CHO-K1-hCRTH2 cell membranes is determined in the absence (total binding, Bo) and presence (non-specific binding, NSB) of unlabelled PGD2 (1 μM, Cayman Chemical, Cat No 12010) or a reference CRTH2 antagonist (10 μM CAY10471, Cayman Chemical, Cat No 10006735).
Determination of the affinity of a test compound is calculated by subtraction of the non-specific binding (NSB) from the total binding (Bo) or the binding in the presence of the test compound (B) at a given compound concentration. […] The Bo-NSB value is set to 0% inhibition.
By Ki is commonly meant the dissociation constant of the complex between target and ligand, obtained from inhibition or displacement. A higher Ki goes with weaker binding. As for `Cc1nn(Cc2ccc(NC(=O)c3cc4ccccc4[nH]3)cc2F)c(C)c1CC(=O)O` [Cmpd 1], the Ki worked out at 0.8 nM.

Consider `Cc1nn(Cc2ccc(NC(=O)c3oc4ccc(F)cc4c3C)cc2)c(C)c1CC(=O)O` [Cmpd 4], for which affinity was put at a Ki of 0.8 nM. In other words, the sub-nanomolar range.

In turn, `Cc1nn(Cc2ccc(NC(=O)c3cc4ccccc4o3)cc2)c(C)c1CC(=O)O` [Cmpd 26] registered a Ki of 0.8 nM. That is a sub-nanomolar value.

`Cc1nn(Cc2ccc(NC(=O)c3oc4ccc(F)cc4c3C)cc2F)c(C)c1CC(=O)O` [Cmpd 27] yielded a Ki of 0.6 nM.

For the compound `CCn1c(C(=O)Nc2ccc(Cn3nc(C)c(CC(=O)O)c3C)c(F)c2)cc2cc(F)ccc21` [Cmpd 32], the Ki came to 0.2 nM.

Take `Cc1nn(Cc2ccc(NC(=O)c3oc4ccc(Br)cc4c3C)cc2F)c(C)c1CC(=O)O` [Cmpd 45]: the affinity corresponds to a Ki of 0.3 nM.

As for `CCc1c(C(=O)Nc2ccc(Cn3nc(C)c(CC(=O)O)c3C)cc2)oc2ccc(F)cc12` [Cmpd 48], affinity was put at a Ki of 1.2 nM.

Values taken from patent US20140148492A1, “BICYCLOSUBSTITUTED PYRAZOLE COMPOUNDS FOR TREATING HAIR LOSS” (Boehringer Ingelheim International GmbH, priority 2012, published 2014).
